Experiments:
[1] = system: root-knot nematode larvae (Meloidogyne incognita); assay: Greenhouse nematocide experiment with tomato plants, soil drench, root gall count; format: in vivo; conditions: 30 days; for Gall Counts, replicate 3: control 1; for Gall Counts, Mean: control 4.0; for Gall Counts, replicate 2: control 7; for Gall Counts, replicate 1: control 4
Method: In the experiment, thirty containers are used, each containing about 500 grams of sterilized sandy loam soil. Each container contains one tomato plant. Each container is injected with four 5-milliliter portions of extract from nematode-infested pepper roots, one inch below the soil surface, producing an initial population of 2000 root-knot nematode larvae (Meloidogyne incognita) per container.
Ten treatments are replicated three times, each treatment consisting of drenching the soil with a solution containing the fumigant to provide the dosage of CS2 given in the following table. The solutions are diluted with sufficient water to saturate the soil. The treatments include calcium tetrathiocarbonate, stabilized ammonium tetrathiocarbonate, and carbon disulfide at three levels, plus an untreated control. After drenching, each container is allowed to stand at ambient conditions. The plants are harvested after 30 days of growth, and soil is removed from the roots by a gentle washing with water. By use of a magnifying glass, the number of root galls is counted on each plant.
Results are summarized below, wherein the "Application" represents milligrams of treatment per kilogram of soil, calculated as the thiocarbonate salt and the equivalent carbon disulfide. Gall counts are mean values from the three replicates.

nematode larvae = assay: In-vitro nematocidal test: larvae treated in aqueous suspension, injected into root zone of tomato plants, gall count; format: in vivo, Meloidogyne incognita; conditions: larvae treated 1 hour; for Gall Count, replicate 2: control 88; for Gall Count, Mean: control 89; for Gall Count, replicate 1: control 90
Method: The procedure of Example 2 is repeated except that potassium tetrathiocarbonate is substituted for stabilized ammonium tetrathiocarbonate and an in-vitro nematocidal test is used. In the in-vitro test, the nematode larvae are treated in aqueous suspension for 1 hour at the concentrations of fumigant given in the following table, washed twice with water, and injected into the active root zone of the tomato plants. After thirty days the roots are harvested, examined for galling, giving the results summarized below.

[2] = Storage stability: loss of ability of aqueous solutions to generate carbon disulfide upon contact with strong acid; format: physicochemical; conditions: aqueous solutions of tetrathiocarbonate salts, about 14 to about 16 percent by weight carbon disulfide equivalent, air-tight glass containers, 49° C.; listed as Ca^++
Method: Various tetrathiocarbonate salts are evaluated for storage stability by measuring the loss of the ability of aqueous solutions thereof to generate carbon disulfide upon contact with strong acid. Aqueous solutions of the salts listed in the following table, having an equivalent of from about 14 to about 16 percent by weight carbon disulfide, are stored in air-tight glass containers at a temperature of 49° C.

[3] = Effect of pH on production of CS2 from thiocarbonates in citrate-phosphate buffers, gas chromatography of air; format: physicochemical
Method: Pure carbon disulfide is also injected, for comparison. A syringe is used to periodically sample air in the bottle, and the air is analyzed by gas chromatography.

Fusarium oxysporum = assay: Fungicidal test, radial growth of mycelia colonies; format: cell-based; conditions: listed as CaCS4 (2.8%CS2)
Method: (§1) Thiocarbonate solutions are used in a test of their fungicidal properties. Cultures of four plant pathogenic fungi are grown upon potato dextrose agar at room temperature, in diffuse natural lighting. After one week, square blocks having 2 millimeter sides are cut from the edges of actively growing mycelia spots on the agar.
(§2) The blocks are immersed in sterile deionized water, as a control, or in dilutions of thiocarbonate solutions using the sterile water, in a closed container. Subsequently, the blocks are removed and placed upon agar in clean plates, and mycelia are allowed to grow for one week.
(§3) Radial growth of mycelia colonies is measured for each of the six to eight replicate plates used for a particular fungus, and average colony radius is calculated. Percent control is defined by the following equation: Percent control =[1-((Average radius of treated plates)/(Average radius of control plates))]x100 [formula]
(§4) Concentrations given for solutions used to treat the agar blocks are expressed in grams of thiocarbonate solution per liter of diluted solution.

Phytophthora cinnamomi = assay: Fungicidal test, radial growth of mycelia colonies; format: cell-based
Method: as §1, §2, §3, §4

Sclerotium rolfsii = assay: Fungicidal test, radial growth of mycelia colonies; format: cell-based
Method: as §1, §2, §3, §4

Verticillium dahliae = assay: Fungicidal test, radial growth of mycelia colonies; format: cell-based
Method: as §1, §2, §3, §4

[4] = Decomposition in sandy loam soil at different moisture, CS2 in air space by gas chromatography; format: physicochemical; conditions: hours to maximum CS2 concentration in the air space
Method: A sandy loam soil is placed in 1-liter glass bottles, fitted with stoppers having fluorocarbon liners and silicone rubber septa, to give a soil depth of about 4 cm. […] Thiocarbonate solution or carbon disulfide is injected near the bottom of the soil layer, the bottles are promptly sealed, and the air space in the bottles is sampled at intervals with a syringe, for gas chromatographic analysis of CS2. Results are summarized below, wherein degradation time is the number of hours required to achieve the maximum CS2 concentration in the air space.

[5] = highest application: 638/89 ppm ((NH4)2CS4·(NH4)2S), 730/91 (CaCS4), 97 ppm (CS2)
[6] = lowest application: 213/30 ppm ((NH4)2CS4·(NH4)2S), 245/31 (CaCS4), 32 ppm (CS2)
[7] = middle application: 425/60 ppm ((NH4)2CS4·(NH4)2S), 490/61 (CaCS4), 65 ppm (CS2)
[8] = 50 ppm salt (6.3 ppm CS2 equiv. CaCS4; 6.5 ppm K2CS4)
[9] = 100 ppm salt (12.5 ppm CS2 equiv. CaCS4; 13 ppm K2CS4)
[10] = 150 ppm salt (18.8 ppm CS2 equiv. CaCS4; 19.5 ppm K2CS4)
[11] = 1 g/l, listed as CaCS4 (2.8%CS2)
[12] = 10 g/l, listed as CaCS4 (2.8%CS2)

S=C(S)SS [CaCS4, calcium tetrathiocarbonate]
Gall Counts, replicate 3 [1, 5]: 9 | Gall Counts, Mean [1, 5]: 7.0 | Gall Counts, replicate 2 [1, 5]: 9 | Gall Counts, replicate 1 ([1]; highest application: 638 ppm salt/89 ppm Eq. CS2 ((NH4)2CS4·(NH4)2S), 730/91 (CaCS4), 97 ppm (CS2)): 3 | Gall Counts, replicate 3 [1, 6]: 23 | Gall Counts, Mean [1, 6]: 15.7 | Gall Counts, replicate 2 [1, 6]: 8 | Gall Counts, replicate 1 ([1]; lowest application: 213 ppm salt/30 ppm Eq. CS2 ((NH4)2CS4·(NH4)2S), 245/31 (CaCS4), 32 ppm (CS2)): 16 | Gall Counts, replicate 3 [1, 7]: 7 | Gall Counts, Mean [1, 7]: 7.3 | Gall Counts, replicate 2 [1, 7]: 4 | Gall Counts, replicate 1 ([1]; middle application: 425 ppm salt/60 ppm Eq. CS2 ((NH4)2CS4·(NH4)2S), 490/61 (CaCS4), 65 ppm (CS2)): 11 | Gall Count, replicate 2 (nematode larvae; [8]): 149 | Gall Count, Mean (nematode larvae; [8]): 167 | Gall Count, replicate 1 (nematode larvae; [8]): 185 | Gall Count, replicate 2 (nematode larvae; [9]): 184 | Gall Count, Mean (nematode larvae; [9]): 158 | Gall Count, replicate 1 (nematode larvae; [9]): 132 | Gall Count, replicate 2 (nematode larvae; [10]): 66 | Gall Count, Mean (nematode larvae; [10]): 49 | Gall Count, replicate 1 (nematode larvae; [10]): 32 | Half-life (months) [2]: 5.0 months | Half-life (minutes) for production of carbon disulfide ([3]; pH 5.2, 125 milligrams per liter of thiocarbonate ion): 1 min | Half-life (minutes) for production of carbon disulfide ([3]; pH 6.0, 125 milligrams per liter of thiocarbonate ion): 1.8 min | Half-life (minutes) for production of carbon disulfide ([3]; pH 7.0, 125 milligrams per liter of thiocarbonate ion): 2.7 min | Half-life (minutes) for production of carbon disulfide ([3]; pH 8.0, 125 milligrams per liter of thiocarbonate ion, CaCS4 values above pH 7 called unreliable): 8.0 min | Half-life (minutes) for production of carbon disulfide ([3]; pH 9.0, 125 milligrams per liter of thiocarbonate ion, CaCS4 values above pH 7 called unreliable): 11.3 min | Percent Control Fusarium oxysporum (Fusarium oxysporum; 1 g/l): 3% | Percent Control Fusarium oxysporum (Fusarium oxysporum; 10 g/l): 18% | Percent Control Fusarium oxysporum (Fusarium oxysporum; 100 g/l thiocarbonate solution per liter of diluted solution): 100% | Percent Control Phytophthora cinnamomi (Phytophthora cinnamomi; [11]): 56% | Percent Control Phytophthora cinnamomi (Phytophthora cinnamomi; [12]): 56% | Percent Control Phytophthora cinnamomi (Phytophthora cinnamomi; 100 g/l): 100% | Percent Control Sclerotium rolfsii (Sclerotium rolfsii; [11]): 46% | Percent Control Sclerotium rolfsii (Sclerotium rolfsii; [12]): 62% | Percent Control Sclerotium rolfsii (Sclerotium rolfsii; 100 g/l): 100% | Percent Control Verticillium dahliae (Verticillium dahliae; [11]): 13% | Percent Control Verticillium dahliae (Verticillium dahliae; [12]): 22% | Percent Control Verticillium dahliae (Verticillium dahliae; 100 g/l): 100% | Degradation Time ([4]; Soil Moisture 0 % of Saturation): 4 h | Degradation Time ([4]; Soil Moisture 50 % of Saturation): 5 h | Degradation Time ([4]; Soil Moisture 100 % of Saturation): 48 h

From patent EP0337503B1, “Fumigation methods and compositions” (Entek Corporation, priority 1983, dated 1984)
